Source: US10449200B2, “Combined inhibition of the vitamin D receptor and poly(ADP) ribose polymerase (PARP) in the treatment of cancer” (Institute for Cancer Research, priority 2014, dated 2019)

Legend:
BxPC3 cells = experiment: Immunofluorescence of DNA damage foci (phospho-γH2AX, Rad51, 53BP1) after gemcitabine; format: cell-based, human; conditions: for cells positive for Rad51 foci (>5 foci/nucleus): 18 hrs post gemcitabine
Experimental: (§1) For Immunofluorescence, cells were plated onto coverslips 24 hours pre-gemcitabine treatment. At different timepoints post gemcitabine treatment, cells were permeablized, fixed (4% paraformaldehyde) and stained. Antibodies to γH2AX (Millipore; 05-636), Rad51 (a gift), and 53BP1 were used. Alexa Fluor-conjugated (488, 555, and 647 nm) secondary antibodies (Molecular probes; A-11029, A-21428, A-21247) were used at a final concentration of 1 and nuclei counterstained with DAPI. Images were captured using a 40× or 63× high NA objective mounted on a semi-automated inverted microscope (Nikon TEi) with a charge-coupled device camera (Photometrics1394) using Nikon Elements 2.0. Exposure times for antibodies were optimized for control samples and identical exposure times used for the experimental samples. Images were quantitated and analyzed using Nikon Elements 2.0. Confocal images were taken using a Leica TCS-SP8 microscope controlled by LAS software (Leica Microsystems).
It was investigated if these repair pathways were abrogated after VDR knockdown by staining for foci formation by phospho-γH2AX, Rad51, and 53BP1, and measuring intensities after gemcitabine treatment (FIGS. 3, 4, and 5). BxPC3 (high VDR expression) and Panc1 (low VDR expression) cells were treated with gemcitabine (50 nM) for 2, 4, 8, and 18 hours, and fixed and stained for phospho-γH2AX, 53BP1, and Rad51. Foci quantitation included counting of nuclei with >5 foci and a separate measurement of the sum intensities of foci that were averaged for 5 separate immunofluorescence experiments. […] Weak but detectable phospho-γH2AX foci were visible within 4 hours of gemcitabine treatment in BxPC3 cells while it took 18 hours for foci to form in Panc1 cells (FIG. 3, A). Similarly, Rad51 foci were visible after 8 hours of gemcitabine treatment in BxPC3 cells compared to 18 hours in Panc1 cells (FIG. 3, A, FIG. 4, and FIG. 5).

Panc1 cells [1] = experiment: Immunofluorescence of DNA damage foci (phospho-γH2AX, Rad51) after gemcitabine; format: cell-based, human
Experimental: as §1
It was investigated if these repair pathways were abrogated after VDR knockdown by staining for foci formation by phospho-γH2AX, Rad51, and 53BP1, and measuring intensities after gemcitabine treatment (FIGS. 3, 4, and 5). BxPC3 (high VDR expression) and Panc1 (low VDR expression) cells were treated with gemcitabine (50 nM) for 2, 4, 8, and 18 hours, and fixed and stained for phospho-γH2AX, 53BP1, and Rad51. Foci quantitation included counting of nuclei with >5 foci and a separate measurement of the sum intensities of foci that were averaged for 5 separate immunofluorescence experiments.

Panc1 cells [2] = experiment: Cell viability (Cell Titer Glo) in siRNA screen; format: cell-based; conditions: Homo sapiens, PANC-1, read-out: sublethal dose (IC20)
Experimental: Synthetic lethal RNAi Screen. High throughput RNAi was performed using the validated human genome-wide siRNA library version 2.0 obtained from Dharmacon. This is a SMARTPool (4 siRNAs per gene) library that targeted ^˜23,500 of the annotated genes, and has been validated to deplete mRNA by 75%. Stock siRNA was diluted in siRNA buffer (Dharmacon; B-002000-UB-100) and 10 ng of siRNA was reverse transfected into Panc1 cells seeded into white Corning 384-well plates (Fisher Scientific; 07-201-320) in quadruplicates on day 0. Briefly, diluted Dharmafect1 reagent (Dharmacon; T-2001-01) in OptiMEM (Life Technologies; 51985091) was added to the wells and allowed to complex with siRNA for 20 minutes at room temperature. Panc1 cells in 100 μl of DMEM/10% FBS media without PSK were mixed with 100 μl of transfection mix at 1000 cells/well. Plates were incubated at 37° C. with 5% CO2. […] Total viable cell number was determined by the addition of Cell Titer Glo (Promega; G7573) and relative luminescence units (RLU) were measured using an EnVision plate reader (Perkin Elmer). […] The effect of gemcitabine treatment on viability was measured based on the normalized viabilities in the drug treated and vehicle wells using Limma, Statistical significance was measured by p-values controlled for the false discovery rate (FDR) using the Benjamini-Hochberg step-up method to account for multiple testing. […]

[3] = BxPC3 VDRkd, 18 hours after gemcitabine
[4] = BxPC3 VDRkd, 18 hours of gemcitabine
[5] = Panc1 cells or VDR depleted BXPC3 versus BxPC3, after gemcitabine
[6] = parental BxPC3, 18 hours of gemcitabine

## Nc1ccn([C@@H]2O[C@H](CO)[C@@H](O)C2(F)F)c(=O)n1 [gemcitabine]
BxPC3 cells; BxPC3 VDRkd cells
  time until Rad51 foci detected after gemcitabine: 18 h
  time until phospho-γH2AX foci detected after gemcitabine: 8 h
BxPC3 cells; BxPC3 VDRkd, 4 hrs in gemcitabine (50 nM), absence of TSA
  cells exhibiting Rad51 foci: 11%
BxPC3 cells; [3]
  cells with diffuse phospho-γH2AX pattern: 82%
  cells with punctate phospho-γH2AX foci: 18%
BxPC3 cells; [4]
  cells with clear Rad51 foci: 28%
  cells with diffuse 53BP1 pattern: 69%
  cells with diffuse Rad51 staining: 72%
  cells with punctate 53BP1 foci: 31%
BxPC3 cells; BxPC3 control cells
  cells positive for Rad51 foci (>5 foci/nucleus): ~84%
BxPC3 cells; BxPC3 transfected with p300 shRNA
  cells positive for Rad51 foci (>5 foci/nucleus): ~22%
BxPC3 cells; [5]
  delay of Rad51 foci formation kinetics: 4 h
  delay of phospho-γH2AX foci formation kinetics: 6 h
  reduction of Rad51 foci intensity: 1.5 fold
  reduction of phospho-γH2AX foci intensity: 2 fold
BxPC3 cells; p300 knockdown cells compared to control cells, gemcitabine treated
  reduction of Rad51 focal intensity: ~35%
BxPC3 cells; parental BxPC3, 18 hours after gemcitabine
  cells with punctate phospho-γH2AX foci: 94%
BxPC3 cells; [6]
  cells with clear Rad51 foci: 92%
  cells with diffuse 53BP1 pattern: 10%
  cells with diffuse Rad51 staining: 8%
  cells with punctate 53BP1 foci: 90%
BxPC3 cells; parental BxPC3, gemcitabine 50 nM
  time until Rad51 foci visible after gemcitabine: 8 h
BxPC3 cells; parental BxPC3, within 4 hours of gemcitabine treatment
  cells exhibiting Rad51 foci: 92%
Panc1 cells [1]; Panc1, gemcitabine 50 nM
  time until Rad51 foci visible after gemcitabine: 18 h
  time until phospho-γH2AX foci form after gemcitabine: 18 h
Panc1 cells [1]; Panc1 transfected with VDR siRNA
  time until phospho-γH2AX and Rad51 foci after gemcitabine addition: 18 h
Panc1 cells [1]; Panc1 transfected with control
  time until phospho-γH2AX and Rad51 foci after gemcitabine addition: ~8 h
Panc1 cells [2]
  IC20: 50 nM
